Assay results reported in patent US8586555B2, “Immunomodulatory compositions, formulations, and methods for use thereof” (Dynavax Technologies Corporation, priority 2001, dated 2013).

Legend:
Assay type in all cases: cell-based
[1] = system: human peripheral blood mononuclear cells (hPBMC); test: human PBMC assay, Example 6
Procedure, shortened: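 PBMCs at 2×10^6 cells/mL in RPMI with 10% human AB serum, 37° C., given 100% phosphorothioate oligonucleotides at 20 μg/ml, alone or with PLGA microcarriers at 250 μg/ml, added together or premixed 15 min. After 24 h, supernatant IFN-γ and IFN-α measured by ELISA in duplicate.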

[2] = system: human peripheral blood mononuclear cells (hPBMC); test: human PBMC assay, Example 7 (oligo 20 μg/ml, cPLGA 100 μg/ml)
Experimental: (§1) Hexameric oligonucleotides were tested for immunomodulatory activity alone and complexed with lactic acid/glycolic acid copolymer microcarrier beads using a human peripheral blood mononuclear cells (hPBMC) assay. Peripheral blood was collected from healthy volunteers by venipuncture using heparinized syringes. Blood was layered onto a FICOLL® (Amersham Pharmacia Biotech) cushion and centrifuged. hPBMCs, located at the FICOLL® interface, were collected, then washed twice with cold phosphate buffered saline (PBS). The cells were resuspended and cultured in 48 well plates at 2×10^6 cells/mL at 37° C. in RPMI 1640 with 10% heat-inactivated human AB serum plus 50 units/mL penicillin, 50 μg/mL streptomycin, 300 μg/mL glutamine, 1 mM sodium pyruvate, and 1×MEM non-essential amino acids (NEAA).
(§2) Oligonucleotides were tested as single agents, or in combination with PLGA microspheres (unmodified or cationic). All oligonucleotides contained 100% phosphorothioate linkages and were tested at 20 μg/ml. The PLGA microcarriers were used at 250 μg/ml. When oligos were tested with PLGA microcarriers, the oligo and the microcarriers were added at the same time to the culture. The cells were cultured in the in the presence of test samples for 24 hours, then cell-free medium was collected from each well and assayed for IFN-γ and IFN-α concentration. Two different oligonucleotides were used as controls: a first oligonucleotide known to have immunostimulatory activity (a 22mer oligonucleotide containing an ISS (“ISS+,” 5′-[…]-3′(SEQ ID NO:2)) and a second oligonucleotide of similar sequence but lacking immunostimulatory activity (“ISS−,” 5′-[…]-3′ (SEQ ID NO:1)). SAC (PANSORBIN® CalBiochem, 1/5000 dilution) and a untreated culture were used as additional positive and negative controls, respectively. SAC contains Staph. aureus (Cowan I) cell material. All samples were assayed in duplicate.
(§3) IFN-γ and IFN-α were assayed using CYTOSCREEN™ ELISA kits from BioSource International, Inc., according to the manufacturer's instructions.
(§4) The immunomodulatory activity of the oligonucleotides used in Examples 3 and 4 was confirmed with the human PBMC assay using PBMCs from an additional four donors (donors 28051-28054). Oligonucleotides were tested alone or in combination with cationic PLGA as described in Example 3, except that 96 well plates were used instead of 48 well plates and the oligonucleotides were premixed with the cationic microspheres at room temperature for 15 minutes before they were added to the culture, rather than being added simultaneously to the culture.
Additional oligonucleotides, some incorporating modified bases, were tested for immunomodulatory activity in the human PBMC assay. Oligonucleotides were tested alone or in combination with cPLGA as described in Example 5. The oligonucleotides were premixed with the cationic PLGA microspheres for 15 minutes at room temperature at concentrations of 20 μg/ml and 100 μg/ml, respectively.

[3] = system: human peripheral blood mononuclear cells (hPBMC); test: human PBMC assay, Example 4 (oligos and PLGA premixed 15 minutes)
Experimental: as §1, §2, §3
Additional hexameric and pentameric oligonucleotides were tested for immunomodulatory activity in the PBMC assay. Oligonucleotides 6-6 (5′-TCGAGA-3′), 6-8 (5′-GTCGAC-3′), 6-9 (5′-GTCGTT-3′), 6-2 (5′-TCGTTT-3′), 6-3 (5′-TTCGTT-3′), 6-4 (5′-TTTCGT-3′), 5-1 (5′-TCGTC-3′), and 5-2 (5′-TCGTT-3′) were tested alone or in combination with cationic PLGA as described in Example 3 except that the oligos and PLGA were premixed for 15 minutes room temperature before addition to the cultures. The test articles were assayed using PBMC isolated from donors 28044 and 28045.

[4] = system: human peripheral blood mononuclear cells (hPBMC); test: human PBMC assay, Example 5 (96 well plates, premixed)
Experimental: as §1, §2, §3, §4

[5] = system: human peripheral blood mononuclear cells (hPBMC); test: human PBMC assay, Example 3 (oligo and PLGA added at the same time, 48 well plates); settings: for IFN-α / IFN-γ: oligo 20 μg/ml, PLGA 250 μg/ml, 24 hours
Experimental: as §1, §2, §3

Substance: 5′-TGACTGTGAACGTTCGAGATGA-3′ [ISS+, reference compound]
- IFN-α ([1]; donor 28075): 0 pg/mL
- IFN-γ ([1]; donor 28075): 48 pg/mL
- IFN-α ([1]; donor 28076): 73 pg/mL
- IFN-γ ([1]; donor 28076): 76 pg/mL
- IFN-α ([1]; donor 28077): 54 pg/mL
- IFN-γ ([1]; donor 28077): 15 pg/mL
- IFN-α ([1]; donor 28078): 94 pg/mL
- IFN-γ ([1]; donor 28078): 72 pg/mL
- IFN-α Mean ([1]; mean of donors 28075-28078): 55 pg/mL
- IFN-γ Mean ([1]; mean of donors 28075-28078): 53 pg/mL
- IFN-α Mean ([1]; mean of volunteers 154-157): 12 pg/mL
- IFN-γ Mean ([1]; mean of volunteers 154-157): 317 pg/mL
- IFN-α ([1]; volunteer 154): 31 pg/mL
- IFN-γ ([1]; volunteer 154): 211 pg/mL
- IFN-α ([1]; volunteer 155): 0 pg/mL
- IFN-γ ([1]; volunteer 155): 131 pg/mL
- IFN-α ([1]; volunteer 156): 15 pg/mL
- IFN-γ ([1]; volunteer 156): 86 pg/mL
- IFN-α ([1]; volunteer 157): 0 pg/mL
- IFN-γ ([1]; volunteer 157): 840 pg/mL
- IFN-α ([2]; donor 28115): 54 pg/mL
- IFN-γ ([2]; donor 28115): 156 pg/mL
- IFN-α ([2]; donor 28116): 29 pg/mL
- IFN-γ ([2]; donor 28116): 125 pg/mL
- IFN-α ([2]; donor 28117): 17 pg/mL
- IFN-γ ([2]; donor 28117): 497 pg/mL
- IFN-α ([2]; donor 28118): 0 pg/mL
- IFN-γ ([2]; donor 28118): 46 pg/mL
- IFN-α Mean ([2]; mean of donors 28115-28118): 25 pg/mL
- IFN-γ Mean ([2]; mean of donors 28115-28118): 206 pg/mL
- IFN-α ([3]; donor 28044): 401 pg/mL
- IFN-γ ([3]; donor 28044): 2180 pg/mL
- IFN-α ([3]; donor 28045): 39 pg/mL
- IFN-γ ([3]; donor 28045): 669 pg/mL
- IFN-α Mean ([3]; mean of donors 28044, 28045): 220 pg/mL
- IFN-γ Mean ([3]; mean of donors 28044, 28045): 1425 pg/mL
- IFN-α ([4]; donor 28051): 12 pg/mL
- IFN-γ ([4]; donor 28051): 66 pg/mL
- IFN-α ([4]; donor 28052): 28 pg/mL
- IFN-γ ([4]; donor 28052): 20 pg/mL
- IFN-α ([4]; donor 28053): 12 pg/mL
- IFN-γ ([4]; donor 28053): 72 pg/mL
- IFN-α ([4]; donor 28054): 12 pg/mL
- IFN-γ ([4]; donor 28054): 23 pg/mL
- IFN-α Mean ([4]; mean of donors 28051-28054): 16 pg/mL
- IFN-γ Mean ([4]; mean of donors 28051-28054): 45 pg/mL
- IFN-α ([5]; donor 28033): 28 pg/mL
- IFN-γ ([5]; donor 28033): 99 pg/mL
- IFN-α ([5]; donor 28034): 106 pg/mL
- IFN-γ ([5]; donor 28034): 223 pg/mL
- IFN-α Mean ([5]; mean of donors 28033, 28034): 67 pg/mL
- IFN-γ Mean ([5]; mean of donors 28033, 28034): 161 pg/mL
